From patent publication US20250381307A1, “RETRO-AAV AND USE IN TREATING NEURODEGENERATIVE DISEASES” (priority 2023, published 2025)

How the values were obtained:
rM3Ds [1] = biological target: T1, rM3Ds (Rattus norvegicus, UniProt P08483, A177S/A238G/A489L/DEL261-437/DEL441-478/E258S/I253V/I483M/INS256[…]/K178L/K182A/K255R/K484R/K486H/L173F/L482A/M480V/R171S/R176Q/R179M/S481M/T174R/T181R/T257A/Y148C); assay: Rotation behavior and nigral c-Fos in mice after unilateral nigral AAV8R12-G88P7-rM3Ds-2A-EYFP and CNO; format: in vivo; settings: for contraversive rotations (FIG. 7A): AAV8R12-G88P7-rM3Ds-2A-EYFP, n=8; for rotation behavior (FIG. 7C): control vector AAV8R12-G88P7-EYFP, n=5
T1 construct: rM3Ds; 2A-EYFP (C); host or cells: AAV8R12-transduced striatal D1-MSNs of mice and cynomolgus macaques (in vivo and acute slices)
Protocol: Mice were anesthetized with sodium pentobarbital (Nembutal; 80 mg/kg, i.p.), and then placed into a stereotaxic device (KOPF). Eye cream was applied on both corneas to avoid dehydration. The skull above the targeted areas was thinned with a dental drill and carefully removed. Injections were conducted with a 10 μL syringe connected to a 33-Gauge needle (Neuros; Hamilton), using a microsyringe pump (Legato 130, KD Scientific). A total volume of 200 nL virus was injected into the SNr at a speed of 20 nL/min. The coordinates for the SNr were 3.4 mm posterior, 1.3 mm lateral, 4.8 mm ventral to the bregma.
Mice that were used in the behavioral experiments were then implanted with guide cannulas (KOPF) unilaterally aiming at the dorsomedial striatum (0.5 mm anterior, 1.5 mm lateral, 3.5 mm ventral to the bregma). The cannulas were fixed to the skull with dental cement. Stainless steel obturators were inserted into the guide cannulas and were replaced every other day to maintain the patency until infusions were made. Mice were allowed to recover from the surgery for at least 3 weeks before further studies.
Mice were individually handled for 10-20 seconds per day for at least 5 days to habituate them to the experimenter. The open field test was conducted in a test apparatus (50 cm×50 cm×50 cm) with an HD digital camera (Sony) positioned above the arena. On day one, mice were habituated to the apparatus for 10 minutes. On day 2, mice were administrated saline (0.1 mL i.p. or 200 nL intracranially [i.e.] through the guide cannulas). On day 3, mice were administrated with Clozapine-N-oxide (CNO, Hello Bio, HB1807; 0.3 mg/kg i.p. or 200 nL at 100 μM i.e.). All behavioral tests were conducted 30 minutes after injection. During the test, mice were allowed to freely explore the apparatus for 10 minutes. The behavioral data were analyzed with ANY-maze software (Stoelting Co.).

rM3Ds [2] = biological target: T2, rM3Ds (Rattus norvegicus, UniProt P08483, A177S/A238G/A489L/DEL261-437/DEL441-478/E258S/I253V/I483M/INS256[…]/K178L/K182A/K255R/K484R/K486H/L173F/L482A/M480V/R171S/R176Q/R179M/S481M/T174R/T181R/T257A/Y148C); assay: In vivo electrophysiological recording in caudate/putamen of MPP+ lesioned macaques; parameters: rM3Ds; 2A-EYFP (C); host or cells: AAV8R12-transduced striatal D1-MSNs of mice and cynomolgus macaques (in vivo and acute slices)
T2 sequence (P08483 with tags, fused parts or gaps Y148C/R171S/L173F/T174R/R176Q/A177S/K178L/R179M/T181R/K182A/A238G/I253V/K255R/INS256[…]/T257A/E258S/DEL261-437/DEL441-478/M480V/S481M/L482A/I483M/K484R/K486H/A489L): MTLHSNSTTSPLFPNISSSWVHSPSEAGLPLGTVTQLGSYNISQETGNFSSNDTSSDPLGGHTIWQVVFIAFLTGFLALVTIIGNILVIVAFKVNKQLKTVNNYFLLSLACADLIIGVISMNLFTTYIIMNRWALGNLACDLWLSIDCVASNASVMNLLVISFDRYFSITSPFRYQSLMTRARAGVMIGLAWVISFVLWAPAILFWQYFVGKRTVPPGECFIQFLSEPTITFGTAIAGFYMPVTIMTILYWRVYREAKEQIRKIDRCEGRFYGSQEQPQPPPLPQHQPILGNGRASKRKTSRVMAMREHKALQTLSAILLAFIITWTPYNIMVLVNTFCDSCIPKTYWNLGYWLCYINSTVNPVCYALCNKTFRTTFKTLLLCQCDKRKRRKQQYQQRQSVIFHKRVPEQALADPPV
Protocol: Electrophysiological recording was performed through a recording chamber while the monkey was anesthetized. Neural responses were recorded by a 16-channel linear probe (Plexon Inc, Uprobe) driven by a mechanical microdrive (Alpha Omega, FlexMT). Signals were passed through a head stage (Plexon Inc, HST/16V-G20 LN) and then split and filtered between 300 Hz and 5 kHz to identify spiking activity with an amplifier system (Plexon Inc, OmniPlex). Detected spikes were then sorted by commercially available software (Plexon Inc, Offline Sorter) for further analysis. To quantify the effect of CNO/DCZ injection, neural activity was recorded for 60 minutes following CNO/DCZ injection. The response time-course for each channel was obtained by counting the spikes within every 10-minute window and then normalizing to the maximal.
To determine the effect of CNO/DCZ injection on the direction of signal change, we performed Pearson correlation between neural responses and time using the ‘corr’ function in Matlab, which generates the correlation coefficient ‘r’ and significant level ‘p’. A neuron was considered to have “Increased” activity when r>0 and p<0.05; and considered to have “Decreased” activity when r<0 and p<0.05. Otherwise, neurons were considered to be “Unchanged” in their neural activities. The responses of all increased neurons were then averaged after being normalized by the maximal response (Crowe et al., 2014; Dai and Wang, 2018; Hirokawa et al., 2019) following CNO/DCZ injection, and then plotted as a function of time to generate the normalized population response.

SMILES: C[N+]1([O-])CCN(C2=Nc3cc(Cl)ccc3Nc3ccccc32)CC1 [CNO, clozapine N-oxide]
- rotations 12 months after viral infection (rM3Ds [1]; CNO i.p., 12 months after nigral AAV8R12-G88P7-rM3Ds-2A-EYFP): consistently elevated contraversive rotations
- contraversive rotations (FIG. 7A) (rM3Ds [1]; CNO i.p., saline 45.95±4.972): 80.05±5.168
- rotation behavior (FIG. 7C) (rM3Ds [1]; CNO i.p., saline 48.68±7.203): 46.88±7.497
- contraversive rotations (FIG. 7A) (rM3Ds [1]; CNO intracranial, saline 58.31±4.742): 80.77±4.187
- rotation behavior (FIG. 7C) (rM3Ds [1]; CNO intracranial, saline 41.11±12.73): 34.55±7.536
- c-Fos+ cells in the SNr (rM3Ds [1]; CNO intraperitoneal, rM3Ds): didn't increase the number of c-Fos+ cells in the SNr
- caudate/putamen cells activated (FIG. 15G) (rM3Ds [2]; CNO 36 cells, DCZ 31 cells, saline 17.9%): 52.8%
- caudate/putamen cells inactivated (FIG. 15G) (rM3Ds [2]; saline 33.4%): 13.9%
- caudate/putamen cells unchanged (FIG. 15G) (rM3Ds [2]; saline 48.7%): 33.3%
